Assay results as given in US9480754B2, “Phospholipid ether analogs as cancer-targeting drug vehicles” (Cellectar Biosciences, Inc., priority 2014, dated 2016).

Legend:
Format in all cases: in vivo
Colon Pirc = assay: 124I-CLR1404 tumor uptake, model 41; settings: Autochthonous Pirc rat, Adenocarcinoma
Protocol: (§1) All described animal studies were performed according to animal protocols approved by the Institutional Animal Care and Use Committee. Female athymic nude mice (Hsd:Athymic Nude-Foxnlnu or Crl:NU-Foxnlnu, Charles River Laboratories) about 4 to 5 weeks of age, 16 to 18 g (n=6), were used for human tumor xenograft studies. Mice were anesthetized with isoflurane and injected subcutaneously with viable tumor cells in 100 μl of Dulbecco's PBS (or, for glioma cells, […] of PBS) into the right flank. Inoculum sizes were 1×10^6 (for renal, ovarian, glioma, pancreatic, prostate, and NSCLC models), […] (for colorectal and uterine models), or 3×10^6 (breast).
(§2) Radioiodinated ^124I-CLR1404 was tested in subcutaneous and orthotopic xenografts of 60 different spontaneous, transgenic, human, and rodent malignant cell lines and tumor types. […] Representative examples are of both human (FIG. 5A-5I) and rodent (FIG. 5J-M) tumors.

Colon LS-180 = assay: 124I-CLR1404 tumor uptake, model 10; settings: Nude mouse, Adenocarcinoma
Protocol: as §1, §2

Neuroblastoma NB1691 = assay: 124I-CLR1404 tumor uptake, model 15; settings: Nude mouse
Protocol: as §1, §2

Glioma L9 = assay: 124I-CLR1404 tumor uptake, model 47; settings: Rat xenograft
Protocol: as §1, §2

Walker256 = assay: 124I-CLR1404 tumor uptake, model 38; settings: Rat, Carcinosarcoma
Protocol: as §1, §2

Melanoma A-375 = assay: 124I-CLR1404 tumor uptake, model 12; settings: Nude mouse
Protocol: as §1, §2

Colon HT-29 = assay: 124I-CLR1404 tumor uptake, model 9; settings: SCID mouse, Adenocarcinoma
Protocol: as §1, §2

Glioma RG2 = assay: 124I-CLR1404 tumor uptake, model 50; settings: Rat xenograft
Protocol: as §1, §2

Glioblastoma 22 GSC = assay: 124I-CLR1404 tumor uptake, model 33; settings: NOD-SCID mouse (orthotopic), Glioma
Protocol: as §1, §2

Neuroblastoma Lan5 = assay: 124I-CLR1404 tumor uptake, model 17; settings: Nude mouse
Protocol: as §1, §2

Breast 4T1 = assay: 124I-CLR1404 tumor uptake, model 35; settings: Endogenous mouse (orthotopic), Adenocarcinoma
Protocol: as §1, §2

Prostate MatLyLu = assay: 124I-CLR1404 tumor uptake, model 37; settings: Rat, Adenocarcinoma
Protocol: as §1, §2

Glioma C6 = assay: 124I-CLR1404 tumor uptake, model 48; settings: Rat xenograft
Protocol: as §1, §2

Ovarian HTB-77 = assay: 124I-CLR1404 tumor uptake, model 18; settings: Nude mouse, Adenocarcinoma
Protocol: as §1, §2

Cervical-HPV = assay: 124I-CLR1404 tumor uptake, model 54; settings: Endogenous mouse, Adenocarcinoma
Protocol: as §1, §2

Mammary AC = assay: 124I-CLR1404 tumor uptake, model 45; settings: ApcMin/+ mouse, Adenocarcinoma
Protocol: as §1, §2

Colon CT26 = assay: 124I-CLR1404 tumor uptake, model 40; settings: SCID mouse, Adenocarcinoma
Protocol: as §1, §2

C[N+](C)(C)CCOP(=O)([O-])OCCCCCCCCCCCCCCCCCCc1ccc(I)cc1 [^124I-CLR1404]
Uptake (Colon Pirc): Yes (Tumor uptake was considered positive if tumor to muscle ratio was greater than 3.)
Uptake (Colon LS-180): Yes (Tumor uptake was considered positive if tumor to muscle ratio was greater than 3.)
Uptake (Neuroblastoma NB1691): Yes (Tumor uptake was considered positive if tumor to muscle ratio was greater than 3.)
Uptake (Glioma L9): Yes (Tumor uptake was considered positive if tumor to muscle ratio was greater than 3.)
Uptake (Walker256): Yes (Tumor uptake was considered positive if tumor to muscle ratio was greater than 3.)
Uptake (Melanoma A-375): Yes (Tumor uptake was considered positive if tumor to muscle ratio was greater than 3.)
Uptake (Colon HT-29): Yes (Tumor uptake was considered positive if tumor to muscle ratio was greater than 3.)
Uptake (Glioma RG2): Yes (Tumor uptake was considered positive if tumor to muscle ratio was greater than 3.)
Uptake (Glioblastoma 22 GSC): Yes (Tumor uptake was considered positive if tumor to muscle ratio was greater than 3.)
Uptake (Neuroblastoma Lan5): Yes (Tumor uptake was considered positive if tumor to muscle ratio was greater than 3.)
Uptake (Breast 4T1): Yes (Tumor uptake was considered positive if tumor to muscle ratio was greater than 3.)
Uptake (Prostate MatLyLu): Yes (Tumor uptake was considered positive if tumor to muscle ratio was greater than 3.)
Uptake (Glioma C6): Yes (Tumor uptake was considered positive if tumor to muscle ratio was greater than 3.)
Uptake (Ovarian HTB-77): Yes (Tumor uptake was considered positive if tumor to muscle ratio was greater than 3.)
Uptake (Cervical-HPV): Yes (Tumor uptake was considered positive if tumor to muscle ratio was greater than 3.)
Uptake (Mammary AC): Yes (Tumor uptake was considered positive if tumor to muscle ratio was greater than 3.)
Uptake (Colon CT26): Yes (Tumor uptake was considered positive if tumor to muscle ratio was greater than 3.)
